Data from patent US8415339B2, “Bactericidal anti-MRSA active pharmaceutical composition containing carbapenems” (priority 2007, dated 2013).
“And” between values parts separate entries of the source, which are not always exact repeats. Equal entries are not always repeated.

Tests used:
Staph. Innsbruck [1] = test: Agar diffusion (plate/disk) test, inhibition zone; assay type: cell-based, Staph. aureus; details: 20 hrs at 37° C.; for zone of inhibition at 10 µg/disc: Staphylococcus aureus, 20 h, read-out: Diameter of inhibition zone
Protocol: (§1) Inhibition zone diameters were determined on Difco Nutrient Agar (10 ml) in sterile dishes (8.5 cm) using ca. 10^6-10^7 colony forming units. 0.2 ml of a bacterial suspension (overnight culture in Difco Nutrient Broth) was mixed at 52° C. with the sterile liquid agar. It solidified at room temperature. Sterile filter disks (6 mm) were placed on the agar surface. Appropriate volumes of a 0.2% aqueous solutions of antibiotics were transferred to the disks by a precision syringe. Alternatively, commercial impregnated disks (Oxoid) were used.
(§2) The inhibition zone diameter was measured after 20 hrs at 37° C. For determination of bactericidal activity, incubation at 37° C. was continued for additional 40 hrs. A clear inhibition zone after additional incubation indicated bactericidity (B).

MRSA 7268/02 [2] = test: Agar diffusion (plate/disk) test, inhibition zone; assay type: cell-based, Staph. aureus; details: 20 hrs at 37° C.; for zone of inhibition at 10 µg/disc: Staphylococcus aureus, MRSA, 20 h, read-out: Diameter of inhibition zone
Protocol: as §1, §2

Staph. Innsbruck [3] = test: Minimal inhibitory concentration, agar dilution; assay type: cell-based, Staph. aureus; details: Difco Nutrient Agar, 20 hrs at 37° C., combinations as a + b; for MIC: Staphylococcus aureus
Protocol: (§3) Minimal inhibitory concentrations were determined using Difco Nutrient Agar. Appropriate volumes of 0.1% aqueous solutions of antibiotics were added into sterile dishes (8.5 cm) in twofold dilutions and mixed with 10 ml of sterile liquid agar of 50° C. The solid agar was inoculated with 3 μl of an 0.5 McFarland bacterial solution in Difco Nutrient Broth, corresponding to approx. 10^5 colony forming units. Bacterial growth was recorded after 20 hrs of incubation at 37° C.

MRSA 7268/02 [4] = test: Minimal inhibitory concentration, agar dilution; assay type: cell-based, Staph. aureus; details: Difco Nutrient Agar, 20 hrs at 37° C., combinations as a + b; for MIC: Staphylococcus aureus, MRSA
Protocol: as §3

MRSA 7268/02 [5] = test: Time dependent counting of colony forming units (cfu); assay type: cell-based, Staph. aureus
MRSA München 12797 = test: Mouse septicaemia test; assay type: in vivo; details: s. c., at 1 hr and 4 hr after i.v. infection, observed 10 days
Protocol: In vivo activity was determined by a mouse septicaemia test using immunocompetent animals of 30 g weight (6 animals per group). Infection was performed with MRSA München 12797 at a concentration of approx. 2×10^9 cfu/mouse by the i.v. route (lethal dose). Therapy was performed at daily doses from 5+5 to 75+75 mg/kg by s. c. route (equivalent amounts at time 1 hr and 4 hr after infection).

[6] = single antibiotic 30 μg per disk
[7] = carbapenem alone 10 μg per disk

Row | Structure (SMILES) | Diameter of inhibition zone (Staph. Innsbruck [1]; [6]) | Diameter of inhibition zone (MRSA 7268/02 [2]; [6]) | further results
1 | Cc1onc(-c2c(Cl)cccc2Cl)c1C(=O)N[C@@H]1C(=O)N2[C@@H]1SC(C)(C)[C@@H]2C(=O)O [Dicloxacillin] | 0 mm | 0 mm | –
2 | Cc1onc(-c2ccccc2)c1C(=O)N[C@@H]1C(=O)N2[C@@H]1SC(C)(C)[C@@H]2C(=O)O [Oxacillin] | 0 mm | 0 mm | –
3 | COc1cccc(OC)c1C(=O)N[C@@H]1C(=O)N2[C@@H]1SC(C)(C)[C@@H]2C(=O)O [Methicillin] | 0 mm | – | –
4 | Cc1onc(-c2ccccc2Cl)c1C(=O)N[C@@H]1C(=O)N2[C@@H]1SC(C)(C)[C@@H]2C(=O)O [Cloxacillin] | 0 mm | 0 mm | –
5 | CC(=O)OCC1=C(C(=O)O)N2C(=O)[C@@H](NC(=O)Cc3cccs3)[C@H]2SC1 [Cephalothin] | – | 0 mm | –
6 | CCN1CCN(C(=O)N[C@@H](C(=O)N[C@@H]2C(=O)N3C(C(=O)O)=C(CSc4nnnn4C)CS[C@H]23)c2ccc(O)cc2)C(=O)C1=O [Cefoperazone] | – | 9 mm | –
7 | CO[C@@]1(NC(=O)C(C(=O)O)c2ccc(O)cc2)C(=O)N2C(C(=O)O)=C(CSc3nnnn3C)CO[C@@H]21 (stereo partly shown) [Moxalactam] | 8 mm | – | –
8 | CO/N=C(\C(=O)N[C@@H]1C(=O)N2C(C(=O)O)=C(COC(C)=O)CS[C@H]12)c1csc(N)n1 [Cefotaxime] | 0 mm | 0 mm | –
9 | C[C@@H](O)[C@H]1C(=O)N2C(C(=O)O)=C(SCOCCN)[C@H](C)[C@H]12 [GH 570, (1R,5S,6S)-2-[(2-Aminoethyl)oxy]metlhylthio-6-[(R)-1-hydroxyethyl]-1-methylcarbapen-2-em-3-carboxylic acid] | – | – | Diameter of inhibition zone (Staph. Innsbruck [1]; [7]): 0 mm; Diameter of inhibition zone (MRSA 7268/02 [2]; [7]): 0 mm
10 | C=CC1=C(C(=O)O)N2C(=O)[C@@H](NC(=O)/C(=N\O)c3csc(N)n3)[C@H]2SC1 [Cefdinir] | – | 0 mm | –
11 | CO/N=C(\C(=O)N[C@@H]1C(=O)N2C(C(=O)O)=C(COC(N)=O)CS[C@H]12)c1ccco1 [Cefuroxim] | – | 0 mm | –
12 | Cc1nnc(SCC2=C(C(=O)O)N3C(=O)[C@@H](NC(=O)Cn4cnnn4)[C@H]3SC2)s1 [Cefazolin] | 0 mm | 0 mm | –
13 | CC1(C)S[C@@H]2[C@H](NC(=O)C(C(=O)O)c3ccccc3)C(=O)N2[C@H]1C(=O)O (stereo partly shown) [Carbenicillin] | – | 0 mm | –
14 | CO[C@@]1(NC(=O)Cc2cccs2)C(=O)N2C(C(=O)O)=C(COC(N)=O)CS[C@@H]21 [Cefoxitin] | 11 mm | 0 mm | MIC (Staph. Innsbruck [3]): 32 µg/mL
15 | CC1(C)S[C@@H]2[C@H](NC(=O)[C@H](N)C3=CCC=CC3)C(=O)N2[C@H]1C(=O)O [Epicillin] | 10 mm and 14 mm and 12 mm | 14 mm and 12 mm | Minimal Inhibitory concentration (Staph. Innsbruck [3]): 32 µg/mL; Minimal Inhibitory concentration (MRSA 7268/02 [4]): 32 µg/mL; Reduction of cfu's, substance used alone (MRSA 7268/02 [5]): Neither epicillin, nor linezolide showed any significant reduction of cfu's
16 | CC1(C)S[C@@H]2[C@H](NC(=O)[C@H](N)c3ccccc3)C(=O)N2[C@H]1C(=O)O [Ampicillin] | 12 mm | 12 mm | –
17 | C[C@@H](O)[C@H]1C(=O)N2C(C(=O)O)=C(S[C@@H]3CN[C@H](C(=O)N(C)C)C3)[C@H](C)[C@H]12 [Meropenem] | – | – | MIC (Staph. Innsbruck [3]): 32 µg/mL; MIC (MRSA 7268/02 [4]): 16 µg/mL; zone of inhibition at 10 µg/disc (Staph. Innsbruck [1]; [7]): 14 mm; zone of inhibition at 10 µg/disc (MRSA 7268/02 [2]; [7]): 13 mm; Bactericidal effect compared with epicillin/meropenem 2+2 μg/ml (MRSA 7268/02 [5]; 4 μg/ml alone): less bactericidal than the epicillin/meropenem composition at 2+2 μg/ml; ED90 (MRSA München 12797): > 75+75 mg/kg
18 | CC(=O)NC[C@H]1CN(c2ccc(N3CCOCC3)c(F)c2)C(=O)O1 [linezolide] | – | – | Reduction of cfu's, substance used alone (MRSA 7268/02 [5]): Neither epicillin, nor linezolide showed any significant reduction of cfu's
19 | COCSC1=C(C(=O)[O-])N2C(=O)[C@H]([C@@H](C)O)[C@H]2[C@H]1C.[K+] [GH 478, Potassium (1R,5S,6S)-6-[(R)-1-hydroxyethyl]-2-methoxymethylthio-1-methylcarbapen-2-em-3-carboxylate] | – | – | Diameter of inhibition zone (Staph. Innsbruck [1]; [7]): 0 mm
20 | CO/N=C(\C(=O)N[C@@H]1C(=O)N2C(C(=O)O)=C(CSc3nc(=O)c(=O)[nH]n3C)CS[C@H]12)c1csc(N)n1 [Ceftriaxon] | 0 mm | 0 mm | –
21 | C=CC1=C(C(=O)O)N2C(=O)[C@@H](NC(=O)/C(=N\OCC(=O)O)c3csc(N)n3)[C@H]2SC1 [Cefixim] | 0 mm | – | –
22 | N[C@@H](C(=O)N[C@@H]1C(=O)N2C(C(=O)O)=C(Cl)CS[C@H]12)c1ccccc1 [Cefaclor] | – | 11 mm | –
23 | CCN1CCN(C(=O)N[C@@H](C(=O)N[C@@H]2C(=O)N3[C@@H]2SC(C)(C)[C@@H]3C(=O)O)c2ccccc2)C(=O)C1=O [Piperacillin] | 0 mm | 0 mm | –
24 | CC1(C)S[C@@H]2[C@H](NC(=O)[C@H](N)c3ccc(O)cc3)C(=O)N2[C@H]1C(=O)O [Amoxicillin] | 10 mm | 0 mm | MIC (Staph. Innsbruck [3]): 64 µg/mL; MIC (MRSA 7268/02 [4]): 32 µg/mL
25 | CN(C)CCn1nnnc1SCC1=C(C(=O)O)N2C(=O)[C@@H](NC(=O)Cc3csc(N)n3)[C@H]2SC1 [Cefotiam] | 0 mm | – | –
26 | C[C@@H](O)[C@H]1C(=O)N2C(C(=O)O)=C(S[C@@H]3CN[C@H](C(=O)Nc4cccc(C(=O)O)c4)C3)[C@H](C)[C@H]12 [Ertapenem] | – | – | zone of inhibition at 10 µg/disc (Staph. Innsbruck [1]; [7]): 0 mm; zone of inhibition at 10 µg/disc (MRSA 7268/02 [2]; [7]): 0 mm
27 | CC(=O)NCSC1=C(C(=O)[O-])N2C(=O)[C@H]([C@@H](C)O)[C@H]2[C@H]1C.[K+] [GH 519, Potassium (1R,5S,6S)-2-[(N-acetylamino)methylthio]-6-[(R)-1-hydroxyethyl]-1-methyl-carbapenen-2-em-3-carboxylate] | – | – | Diameter of inhibition zone (Staph. Innsbruck [1]; [7]): 0 mm; Diameter of inhibition zone (MRSA 7268/02 [2]; [7]): 0 mm
28 | C[C@@H](O)[C@H]1C(=O)N2C(C(=O)O)=C(SCCN=CN)C[C@H]12 [Imipenem] | – | – | zone of inhibition at 10 µg/disc (Staph. Innsbruck [1]; [7]): 8 mm; zone of inhibition at 10 µg/disc (MRSA 7268/02 [2]; [7]): 8 mm
29 | NC(=O)c1cc[n+](CC2=C(C(=O)[O-])N3C(=O)[C@@H](NC(=O)[C@@H](c4ccccc4)S(=O)(=O)O)[C@H]3SC2)cc1 [Cefsudolin] | 0 mm | 0 mm | –
30 | CN[C@H](CC(C)C)C(=O)N[C@H]1C(=O)N[C@@H](CC(N)=O)C(=O)N[C@H]2C(=O)N[C@H]3C(=O)N[C@H](C(=O)N[C@H](C(=O)O)c4cc(O)cc(O)c4-c4cc3ccc4O)[C@H](O)c3ccc(c(Cl)c3)Oc3cc2cc(c3O[C@@H]2O[C@H](CO)[C@@H](O)[C@H](O)[C@H]2O[C@H]2C[C@](C)(N)[C@H](O)[C@H](C)O2)Oc2ccc(cc2Cl)[C@H]1O [Vancomycin] | 20 mm | 19 mm | –
